Measurements taken from patent publication US20230113037A1 (Bayer Aktiengesellschaft, priority 2019, published 2023).
Read-outs that look alike come from different tables or passages of the source.

Tests used:
AHR [1] = biological target: T1, AHR (Homo sapiens, UniProt P35869); test: In vitro assay 1: antagonism in human cell line (AHR transactivation, firefly luciferase reporter, kynurenic acid prestimulated); type: cell-based; conditions: AHR Antagonism Human IC50 [M]
T1 construct: U87 MG glioblastoma cells (ATCC #HTB-14) endogenously expressing AHR; endogenous in cells; host or cells: U87 MG glioblastoma cells (ATCC #HTB-14)
T1 sequence (P35869 11-848): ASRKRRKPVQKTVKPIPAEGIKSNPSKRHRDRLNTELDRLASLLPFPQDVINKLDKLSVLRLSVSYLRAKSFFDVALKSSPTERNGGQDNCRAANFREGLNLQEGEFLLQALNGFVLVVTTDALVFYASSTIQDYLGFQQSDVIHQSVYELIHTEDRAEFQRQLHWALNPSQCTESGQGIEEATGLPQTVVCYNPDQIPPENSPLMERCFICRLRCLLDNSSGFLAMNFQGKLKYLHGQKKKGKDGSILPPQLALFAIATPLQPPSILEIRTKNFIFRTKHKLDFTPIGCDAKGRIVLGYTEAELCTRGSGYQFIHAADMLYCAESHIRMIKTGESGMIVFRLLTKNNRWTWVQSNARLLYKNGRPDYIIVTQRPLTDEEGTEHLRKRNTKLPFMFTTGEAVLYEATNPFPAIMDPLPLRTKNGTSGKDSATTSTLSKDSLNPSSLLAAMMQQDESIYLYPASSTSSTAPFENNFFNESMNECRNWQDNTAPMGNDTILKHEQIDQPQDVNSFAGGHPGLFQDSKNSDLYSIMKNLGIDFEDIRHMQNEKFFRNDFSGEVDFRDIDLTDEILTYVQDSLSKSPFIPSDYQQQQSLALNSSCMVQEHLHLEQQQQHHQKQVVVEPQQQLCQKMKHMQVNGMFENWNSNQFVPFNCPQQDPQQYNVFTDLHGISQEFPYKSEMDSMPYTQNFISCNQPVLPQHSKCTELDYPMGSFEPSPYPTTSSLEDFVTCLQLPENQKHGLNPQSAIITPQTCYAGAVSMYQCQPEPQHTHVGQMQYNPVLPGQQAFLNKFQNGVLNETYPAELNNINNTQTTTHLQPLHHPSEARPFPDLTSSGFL
Outline: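 Antagonism measured as loss of kynurenic acid-driven firefly luciferase from DRE reporter in stably transfected U87 MG cells; constitutive Renilla signal monitors cytotoxicity. Positive/negative control normalization, staurosporine 5 μM with 150 μM kynurenic acid as inhibition control; replicates given as mean or median.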

AHR [2] = biological target: T2, AHR (Mus musculus, UniProt P30561); test: In vitro assay 3: antagonism in mouse cell line (AHR transactivation, firefly luciferase reporter, kynurenic acid prestimulated); type: cell-based; conditions: 200 μM kynurenic acid, 20 hours, read-out: AHR Antagonism Mouse IC50
T2 sequence (P30561 1-848 P471L/N533S/M589L): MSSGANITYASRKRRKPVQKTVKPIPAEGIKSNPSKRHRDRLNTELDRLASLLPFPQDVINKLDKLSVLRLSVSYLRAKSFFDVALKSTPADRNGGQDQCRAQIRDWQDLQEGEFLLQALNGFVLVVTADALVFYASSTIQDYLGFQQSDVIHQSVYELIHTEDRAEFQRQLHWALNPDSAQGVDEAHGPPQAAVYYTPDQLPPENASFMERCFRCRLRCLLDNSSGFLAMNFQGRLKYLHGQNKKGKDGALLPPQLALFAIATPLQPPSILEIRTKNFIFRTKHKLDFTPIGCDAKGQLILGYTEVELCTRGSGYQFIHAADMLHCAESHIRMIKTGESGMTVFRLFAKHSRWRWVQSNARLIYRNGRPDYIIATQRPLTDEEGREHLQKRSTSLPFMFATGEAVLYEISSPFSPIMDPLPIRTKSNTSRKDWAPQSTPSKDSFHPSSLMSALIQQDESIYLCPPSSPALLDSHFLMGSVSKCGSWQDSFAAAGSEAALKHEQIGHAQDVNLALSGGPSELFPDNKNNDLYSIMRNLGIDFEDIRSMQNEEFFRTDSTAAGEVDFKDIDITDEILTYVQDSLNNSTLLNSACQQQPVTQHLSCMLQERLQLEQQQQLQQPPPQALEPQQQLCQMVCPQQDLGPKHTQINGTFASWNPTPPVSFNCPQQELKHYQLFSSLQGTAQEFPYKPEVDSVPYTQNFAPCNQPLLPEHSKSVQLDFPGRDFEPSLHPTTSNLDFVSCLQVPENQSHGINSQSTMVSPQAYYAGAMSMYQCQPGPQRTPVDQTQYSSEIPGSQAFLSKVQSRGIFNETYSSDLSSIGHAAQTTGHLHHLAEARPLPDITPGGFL
Outline: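 Luminescence from an AHR-dependent DRE-luciferase reporter, stably integrated in mouse cells, quantifies blockade of kynurenic acid-driven activation. Unstimulated cells mark maximal inhibition; normalization uses both control types, and multiply tested compounds carry mean or median values.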

[3] = Hepa 1c1c7 cells, firefly luciferase reporter

SMILES | IC50 (AHR [1]; firefly luciferase reporter) | IC50 (AHR [2]; [3]) | IC50 (AHR [1]) | IC50 (AHR [2]; mouse Hepa 1c1c7 cells)
COc1ccc(-c2nc3c4cccc(Br)c4nc(N[C@H](C)C(=O)NCC(C)(C)N)n3n2)cc1 [Example 789, N-(2-amino-2-methylpropyl)-N^2-[7-bromo-2-(4-methoxyphenyl)[1,2,4]triazolo[1,5-c]quinazolin-5-yl]-D-alaninamide] | 4.3e-08 M | 17.1 nM | – | –
CC[C@H](Nc1nc2c(Br)cccc2c2nc(-c3cnn(C)c3)nn12)C(N)=O [Example 694, (2S)-2-{[7-bromo-2-(1-methyl-1H-pyrazol-4-yl)[1,2,4]triazolo[1,5-c]quinazolin-5-yl]amino}butanamide] | – | – | 1.55e-07 M | 719 nM
Cn1cc(-c2nc3c4cccc(C5CC5)c4nc(N[C@@H]4CCCCNC4=O)n3n2)cn1 [Example 207, (3R)-3-{[7-cyclopropyl-2-(1-methyl-1H-pyrazol-4-yl)[1,2,4]triazolo[1,5-c]quinazolin-5-yl]amino}azepan-2-one] | – | – | 1.77e-08 M | 242 nM
Cn1cc(-c2nc3c4cccc(Br)c4nc(N[C@H]4CS(=N)(=O)CCNC4=O)n3n2)cn1 (single isomer, unassigned) [Example 857] | 4.25e-06 M | 2140 nM | – | –
CNCCNC(=O)[C@@H](C)Nc1nc2c(Br)cccc2c2nc(-c3cnn(C)c3)nn12 [Example 991, N^2-[7-bromo-2-(1-methyl-1H-pyrazol-4-yl)[1,2,4]triazolo[1,5-c]quinazolin-5-yl]-N-[2-(methylamino)ethyl]-D-alaninamide-hydrogen chloride (1/1)] | 3.13e-08 M | 76.6 nM | – | –
CC(C)S(=O)(=O)c1cccc2c1nc(N[C@@H]1CNCCNC1=O)n1nc(-c3cnn(C)c3)nc21 [Example 943, (6R)-6-{[2-(1-methyl-1H-pyrazol-4-yl)-7-(propane-2-sulfonyl)[1,2,4]triazolo[1,5-c]quinazolin-5-yl]amino}-1,4-diazepan-5-one] | 9.47e-07 M | 2790 nM | – | –
O=C1NCCCC[C@H]1Nc1nc2ccccc2c2nc(-c3cnn(C4CCOCC4)c3)nn12 [Example 600, (3R)-3-({2-[1-(oxan-4-yl)-1H-pyrazol-4-yI][1,2,4]triazolo[1,5-c]quinazolin-5-yl}amino)azepan-2-one] | – | – | 4.48e-08 M | 31.3 nM
COCCNC(=O)[C@@H](C)Nc1nc2c(Br)cccc2c2nc(-c3ccc(OC)cc3)nn12 [Example 885, N^2-[7-bromo-2-(4-methoxyphenyl)[1,2,4]triazolo[1,5-c]quinazolin-5-yl]-N-(2-methoxyethyl)-D-alaninamide] | 1.24e-09 M | 2.94 nM | – | –
CC(C)c1cccc2c1nc(N[C@@H]1CCCCNC1=O)n1nc(-c3cccc(F)c3)nc21 [Example 394, (3R)-3-{[2-(3-Fluorophenyl)-7-(propan-2-yl)[1,2,4]triazolo[1,5-c]quinazolin-5-yl]amino}azepan-2-one] | – | – | 1.16e-08 M | 30.9 nM
O=C1NCCCC[C@H]1Nc1nc2c(Cl)cccc2c2nc(-c3cccc(F)c3)nn12 [Example 555, (3R)-3-{[7-chloro-2-(3-fluorophenyl)[1,2,4]triazolo[1,5-c]quianzolin-5-yl]amino}azepan-2-one] | – | – | 1.82e-08 M | 6.92 nM
Cc1nn(C)cc1-c1nc2c3cccc(C(F)(F)F)c3nc(N[C@H]3CNCCNC3=O)n2n1 [Example 948] | 2.08e-08 M | 49.6 nM | – | –
Cc1ccccc1-c1nc2c3ccccc3nc(NC3CNCCNC3=O)n2n1 (stereo not shown) [Example 45, 6-{[2-(2-methylphenyl)[1,2,4]triazolo[1,5-c]quinazolin-5-yl]amino}-1,4-diazepan-5-one] | – | – | 1.19e-08 M | 14.5 nM
O=C1NCCCC[C@H]1Nc1nc2ccccc2c2nc(-c3cccc(C(F)(F)F)c3)nn12 [Example 54, (3R)-3-({2-[3-(trifluoromethyl)phenyl][1,2,4]triazolo[1,5-c]quinazolin-5-yl}amino)azepan-2-one] | – | – | 2.08e-08 M | 3.2 nM
Cc1sccc1-c1nc2c3ccccc3nc(N[C@@H]3CCNC3=O)n2n1 [Example 349, (3R)-3-{[2-(2-methylthiophen-3-yl)[1,2,4]triazolo[1,5-c]quinazolin-5-yl]amino}pyrrolidin-2-one] | – | – | 5.16e-08 M | 11.5 nM
COc1ccc(-c2nc3c4cccc(Br)c4nc(N[C@@H](C(=O)NCCN4CCN(C)CC4)C(C)C)n3n2)cc1 [Example 924, N^2-[7-bromo-2-(4-methoxyphenyl)[1,2,4]triazolo[1,5-c]quinazolin-5-yl]-N-[2-(4-methylpiperazin-1-yl)ethyl]-D-valinamide] | 6.71e-09 M | 3.8 nM | – | –
C[C@@H](Nc1nc2c(Br)cccc2c2nc(-c3cnn(C)c3)nn12)C(=O)N1CC2(CN(C)C2)C1 [Example 919, (2R)-2-{[7-bromo-2-(1-methyl-1H-pyrazol-4-yl)[1,2,4]triazolo[1,5-c]quinazolin-5-yl]amino}-1-(6-methyl-2,6-diazaspiro[3.3]heptan-2-yl)propan-1-one] | 1.18e-06 M | 613 nM | – | –

Other lines, results leading:

IC50 (AHR [1]; firefly luciferase reporter) | IC50 (AHR [2]; [3]) | IC50 (AHR [1]) | IC50 (AHR [2]; mouse Hepa 1c1c7 cells) | SMILES
– | – | 2.92e-09 M | 0.51 nM | CN(C)c1cccc(-c2nc3c4ccccc4nc(N[C@@H]4CCCCNC4=O)n3n2)c1 [Example 446, (3R)-3-({2-[3-(dimethylamino)phenyl][1,2,4]triazolo[1,5-c]quinazolin-5-yl}amino)azepan-2-one]
– | – | 1.18e-07 M | 17.7 nM | O=C1NCCCC[C@@H]1Nc1nc2ccccc2c2nc(-c3ccsc3)nn12 [Example 341]
1.76e-09 M | 10.9 nM | – | – | CCS(=O)(=O)c1cccc2c1nc(N[C@@H]1CCCCNC1=O)n1nc(-c3ccc(OC)cc3)nc21 [Example 844, (3R)-3-{[7-(ethanesulfonyl)-2-(4-methoxyphenyl)[1,2,4]triazolo[1,5-c]quinazolin-5-yl]amino}azepan-2-one]
– | – | 3.72e-07 M | 51 nM | COc1ccc(-c2nc3c4cc(Cl)ccc4nc(N[C@@H]4CNCCNC4=O)n3n2)cc1 [Example 278, (6R)-6-{[9-chloro-2-(4-methoxyphenyl)[1,2,4]triazolo[1,5-c]quinazolin-5-yl]amino}-1,4-diazepan-5-one]
– | – | 2.54e-07 M | 1020 nM | COc1cccc(-c2nc3c4c(C)cccc4nc(N[C@H]4CCCNC4=O)n3n2)c1 [Example 182, (3S)-3-{[2-(3-methoxyphenyl)-10-methyl[1,2,4]triazolo[1,5-c]quinazolin-5-yl]amino}piperidin-2-one]
– | – | 3.63e-08 M | 664 nM | COc1ccccc1-c1nc2c3ccccc3nc(N[C@@H]3CCCCNC3=O)n2n1 [Example 61, (3R)-3-{[2-(2-methoxyphenyl)[1,2,4]triazolo[1,5-c]quinazolin-5-yl]amino}azepan-2-one]
– | – | 1.12e-08 M | 21.6 nM | COc1ccc(-c2nc3c4c(C5COC5)cccc4nc(N[C@@H]4CCCCNC4=O)n3n2)cc1 [Example 396, (3R)-3-{[2-(4-methoxyphenyl)-10-(oxetan-3-yl)[1,2,4]triazolo[1,5-c]quinazolin-5-yl]amino}azepan-2-one]
